In patent publication US12697336B2, “RUC-4 formulations” (CeleCor Therapeutics, Inc., priority 2021, dated 2026):

Key:
[1] = Example 1 formulation stability test: overnight (~18 hours) storage at −20° C., 5° C. and 20° C., visual observation; assay type: physicochemical; conditions: pH 4.75
Experimental: Formulation solutions as described in Table 3 below were prepared and divided in to three equal portions that were stored overnight (~18 hours) at −20° C., 5° C. and 20° C., respectively. The formulations were observed, and the characteristics reported in Table 3 were noted, immediately for RT, immediately upon removing 5° C. formulations from refrigerator, and upon thawing of −20° C. formulations. Clear solutions of Compound (1) were obtained at pH 4.75 at concentrations of ≤17.5 mg/mL.

[2] = Solubility of Compound (1) in acetic acid; assay type: physicochemical; conditions: organic solvent or mixture, read-out: Solubility in acetic acid (obtainable solution concentration)
Experimental: In particular, solutions of greater than 300 mg/mL are obtainable.

Concentration at which clear solutions were obtained [1]: ≤ 17500 µg/mL
solubility [2]: > 300 mg/mL
Compound: NCC(=O)Nc1cncc(-c2nn3c(=O)cc(N4CCNCC4)nc3s2)c1 [Compound (1)]
